Reference: patent publication US12638448B2, “Compositions, methods, and kits for detection of lipolytic activity” (priority 2019, dated 2026)
Several values for one entry are separate records, joined by “and”; a condition that tells them apart may be missing. Equal values may be shown once.

Key:
[1] = 4MuO auto-hydrolysis (no enzyme), 4Mu fluorescence; format: physicochemical
[2] = cited from earlier work
[3] = biological target: T1, Porcine pancreas lipase (PPL) (Sus scrofa, UniProt P00591); assay: 4MuO lipase assay with porcine pancreas lipase (Examples 1A-7); settings: for concentration at which product inhibition of lipase activity was observed: 800 nM PPL
T1 sequence (P00591 1-450): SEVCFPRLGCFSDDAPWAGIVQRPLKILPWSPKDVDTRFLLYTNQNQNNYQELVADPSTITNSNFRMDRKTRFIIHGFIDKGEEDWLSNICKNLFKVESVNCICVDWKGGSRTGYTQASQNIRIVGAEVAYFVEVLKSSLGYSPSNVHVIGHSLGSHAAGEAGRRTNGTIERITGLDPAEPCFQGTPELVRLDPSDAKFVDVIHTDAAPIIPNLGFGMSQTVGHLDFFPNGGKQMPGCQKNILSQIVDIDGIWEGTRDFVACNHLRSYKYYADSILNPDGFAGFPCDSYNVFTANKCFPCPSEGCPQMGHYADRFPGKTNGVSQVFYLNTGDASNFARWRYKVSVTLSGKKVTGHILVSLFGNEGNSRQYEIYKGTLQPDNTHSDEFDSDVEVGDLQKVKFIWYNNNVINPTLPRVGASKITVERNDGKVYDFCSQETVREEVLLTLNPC

[4] = biological target: T2, porcine pancreatic lipase (PPL) (Sus scrofa, UniProt P00591); assay: 4MuO lipase assay with HCMB, sample containing PPL (Examples 1B-6B, 10); format: biochemical
T2 construct: purchased Sigma; host or cells: porcine pancreas
T2 sequence (P00591 1-450): T1 sequence (P00591 1-450)

[5] = tested on: cell culture harvest fluid (CCHF) containing a mixture of lipases; format: biochemical, CHO cell line; settings: negative controls, 30 min pre-incubation, 10 mg/mL mAb1, 0.02% PS80, 0.5% CCHF
LipC12 lipase = settings: as solvent; cited from earlier work
[6] = as organic solvent of the assay
[7] = 10.4 mM TRIS pH 8.1, 500 nM PPL, 22 hours

C[S+](C)[O-] [DMSO, dimethyl sulfoxide]
Auto-Hydrolysis (AH) [1, 6]: 0.14 µM

Cc1cc(=O)oc2cc(O)ccc12 [4Mu, 4-methylumbelliferone]
pKa [2]: approximately 7.7

NC(CO)(CO)CO [TRIS]
Auto-Hydrolysis (AH) ([1]; 10.4 mM TRIS pH 8.1, 22 hours): 0.22 µM | Enzymatic Hydrolysis (EH − AH) [3, 7]: 1.29 µM | Total Hydrolysis (AH + EH) [3, 7]: 1.51 µM

[Ca+2].[Cl-].[Cl-] [CaCl2, calcium chloride]
Auto-Hydrolysis (AH) ([1]; 0.104 mM CaCl2): 0.15 µM | Auto-Hydrolysis (AH) ([1]; 1.04 mM CaCl2): 0.16 µM | Auto-Hydrolysis (AH) ([1]; 10.4 mM CaCl2): 0.16 µM | PPL activity (in words) ([4]; highest concentration tested (52 mM CaCl2 in HCMB)): slightly decreased | Enzymatic Hydrolysis (EH − AH) ([3]; 0.104 mM CaCl2, 500 nM PPL): 0.66 µM | Total Hydrolysis (AH + EH) ([3]; 0.104 mM CaCl2, 500 nM PPL): 0.81 µM | Enzymatic Hydrolysis (EH − AH) ([3]; 1.04 mM CaCl2, 500 nM PPL): 0.73 µM | Total Hydrolysis (AH + EH) ([3]; 1.04 mM CaCl2, 500 nM PPL): 0.90 µM | Enzymatic Hydrolysis (EH − AH) ([3]; 10.4 mM CaCl2, 500 nM PPL): 0.69 µM | Total Hydrolysis (AH + EH) ([3]; 10.4 mM CaCl2, 500 nM PPL): 0.85 µM

CC(C)O [IPA, isopropanol]
Auto-Hydrolysis (AH) [1, 6]: 0.09 µM

[Cl-].[Na+] [NaCl, sodium chloride]
Auto-Hydrolysis (AH) ([1]; 40 mM NaCl): 0.25 µM | Auto-Hydrolysis (AH) ([1]; 120 mM NaCl): 0.29 µM | Auto-Hydrolysis (AH) ([1]; 360 mM NaCl): 0.28 µM | PPL activity (in words) ([4]; highest concentration tested (1800 mM NaCl in HCMB)): slightly decreased | Enzymatic Hydrolysis (EH − AH) ([3]; 40 mM NaCl, 500 nM PPL): 0.57 µM | Total Hydrolysis (AH + EH) ([3]; 40 mM NaCl, 500 nM PPL): 0.82 µM | Enzymatic Hydrolysis (EH − AH) ([3]; 120 mM NaCl, 500 nM PPL): 0.62 µM | Total Hydrolysis (AH + EH) ([3]; 120 mM NaCl, 500 nM PPL): 0.91 µM | Enzymatic Hydrolysis (EH − AH) ([3]; 360 mM NaCl, 500 nM PPL): 0.59 µM | Total Hydrolysis (AH + EH) ([3]; 360 mM NaCl, 500 nM PPL): 0.86 µM

CCCCCCCCCCC[C@@H](C[C@@H]1OC(=O)[C@H]1CCCCCC)OC(=O)[C@H](CC(C)C)NC=O [orlistat, (S)-2-formylamino-4-methyl-pentanoic acid (S)-1-[[(2S,3S)-3-hexyl-4-oxo-2-oxetanyl]methyl]-dodecyl ester, reference compound]
CCHF lipase activity in protein-containing formulation (in words) [5]: inhibited | inhibition at 25 µM ([4]; 25 μM, 30 min pre-incubation, 0.0335 mg/mL PPL, read-out: reduction of enzyme activity in pre-treated sample compared to co-addition of substrate and inhibitor): ~50% | PPL activity in protein-containing formulation (in words) ([4]; negative controls, 30 min pre-incubation, 10 mg/mL mAb1, 0.02% PS80, 0.025 mg/mL PPL): inhibited | lipolytic activity (in words) ([3]; pre-treatment (30 minutes) at 25 μM, 500 nM PPL): completely abolished

OCCN(CCO)C(CO)(CO)CO [BIS-TRIS]
Auto-Hydrolysis (AH) ([1]; pH 6): 0.16 µM and 0.13 µM and 0.11 µM

CCCCCCCC/C=C\CCCCCCCC(=O)Oc1ccc2c(C)cc(=O)oc2c1 [4MuO, 4-methylumbelliferyl oleate, reference compound]
factor by which autohydrolysis (AH) decreased ([1]; lowering the pH from 8 to 6 (TRIS / BIS-TRIS)): ~5

CCCCCCCC/C=C\CCCCCCCC(=O)O [Oleic Acid, oleic acid, reference compound]
Auto-Hydrolysis (AH) ([1]; 7.8 μM Oleic Acid (0.001% PS80 theoretically fully degraded)): 0.11 µM | Auto-Hydrolysis (AH) ([1]; 780 μM Oleic Acid (0.1% PS80 theoretically fully degraded)): 0.06 µM | concentration at which product inhibition of lipase activity was observed [3]: 780 µM

CCCCCCCCCCCC(=O)O [Lauric Acid, lauric acid, reference compound]
Auto-Hydrolysis (AH) ([1]; 8.5 μM Lauric Acid (0.001% PS20 theoretically fully degraded)): 0.15 µM | Auto-Hydrolysis (AH) ([1]; 850 μM Lauric Acid (0.1% PS20 theoretically fully degraded)): 0.08 µM | concentration at which product inhibition of lipase activity was observed [3]: above 8.5 μM

CO [MeOH, methanol]
factor of increase of LipC12 lipase activity (LipC12 lipase): > 10 | Auto-Hydrolysis (AH) [1, 6]: 0.13 µM
